# Assay results: publication PMC4844176 (Xenobiotica; the fate of foreign compounds in biological …, 2015)
# Several values for one entry are separate records, joined by “and”; a condition that tells them apart may be missing. Equal values may be shown once.
# T1: UGT2B7 (Homo sapiens, UniProt P16662)
# T1 sequence (P16662 24-529): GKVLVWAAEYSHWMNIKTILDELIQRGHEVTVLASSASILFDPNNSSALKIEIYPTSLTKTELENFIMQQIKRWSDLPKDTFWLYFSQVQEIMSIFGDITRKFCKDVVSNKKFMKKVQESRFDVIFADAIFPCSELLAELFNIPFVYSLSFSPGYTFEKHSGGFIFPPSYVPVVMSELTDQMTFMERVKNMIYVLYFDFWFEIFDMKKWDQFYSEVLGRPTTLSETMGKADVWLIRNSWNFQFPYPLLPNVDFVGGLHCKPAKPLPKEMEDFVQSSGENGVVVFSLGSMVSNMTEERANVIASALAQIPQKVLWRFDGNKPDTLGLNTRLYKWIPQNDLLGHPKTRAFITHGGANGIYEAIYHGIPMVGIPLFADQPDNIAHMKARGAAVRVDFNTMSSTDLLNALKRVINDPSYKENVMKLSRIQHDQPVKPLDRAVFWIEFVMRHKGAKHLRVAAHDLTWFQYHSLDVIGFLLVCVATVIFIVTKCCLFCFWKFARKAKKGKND
# T2: UGT1A8 (Homo sapiens, UniProt Q9HAW9)
# T2 sequence (Q9HAW9 26-530): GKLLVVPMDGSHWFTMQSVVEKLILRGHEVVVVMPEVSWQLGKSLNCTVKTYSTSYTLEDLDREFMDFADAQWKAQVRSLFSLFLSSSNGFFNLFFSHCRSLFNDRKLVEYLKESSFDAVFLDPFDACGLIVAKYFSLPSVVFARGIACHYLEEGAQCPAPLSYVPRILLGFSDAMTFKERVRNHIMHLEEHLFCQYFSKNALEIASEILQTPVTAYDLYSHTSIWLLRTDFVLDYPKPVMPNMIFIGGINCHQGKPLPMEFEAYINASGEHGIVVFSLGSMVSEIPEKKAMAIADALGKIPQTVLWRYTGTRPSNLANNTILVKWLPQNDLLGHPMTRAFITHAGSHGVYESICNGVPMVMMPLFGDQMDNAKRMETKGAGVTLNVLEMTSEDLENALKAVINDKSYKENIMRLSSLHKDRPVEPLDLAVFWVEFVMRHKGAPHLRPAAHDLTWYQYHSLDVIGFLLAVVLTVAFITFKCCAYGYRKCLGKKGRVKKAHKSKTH
# T3: UGT1A3 (Homo sapiens, UniProt P35503)
# T3 sequence (P35503 29-534): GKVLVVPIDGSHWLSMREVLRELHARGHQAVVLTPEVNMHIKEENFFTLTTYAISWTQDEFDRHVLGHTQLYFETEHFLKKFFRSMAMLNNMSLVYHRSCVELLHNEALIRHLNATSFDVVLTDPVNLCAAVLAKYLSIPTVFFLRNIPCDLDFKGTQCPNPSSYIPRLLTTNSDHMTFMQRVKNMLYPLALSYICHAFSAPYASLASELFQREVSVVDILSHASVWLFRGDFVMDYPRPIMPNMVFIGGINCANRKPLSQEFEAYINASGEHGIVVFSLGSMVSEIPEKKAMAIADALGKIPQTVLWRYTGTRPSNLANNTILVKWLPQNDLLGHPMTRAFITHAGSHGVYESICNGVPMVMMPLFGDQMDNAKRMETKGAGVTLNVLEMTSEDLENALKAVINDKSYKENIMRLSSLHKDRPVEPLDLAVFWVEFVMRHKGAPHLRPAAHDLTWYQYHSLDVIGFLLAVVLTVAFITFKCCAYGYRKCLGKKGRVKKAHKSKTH
# T4: UGT1A4 (Homo sapiens, UniProt P22310)
# T4 sequence (P22310 29-534): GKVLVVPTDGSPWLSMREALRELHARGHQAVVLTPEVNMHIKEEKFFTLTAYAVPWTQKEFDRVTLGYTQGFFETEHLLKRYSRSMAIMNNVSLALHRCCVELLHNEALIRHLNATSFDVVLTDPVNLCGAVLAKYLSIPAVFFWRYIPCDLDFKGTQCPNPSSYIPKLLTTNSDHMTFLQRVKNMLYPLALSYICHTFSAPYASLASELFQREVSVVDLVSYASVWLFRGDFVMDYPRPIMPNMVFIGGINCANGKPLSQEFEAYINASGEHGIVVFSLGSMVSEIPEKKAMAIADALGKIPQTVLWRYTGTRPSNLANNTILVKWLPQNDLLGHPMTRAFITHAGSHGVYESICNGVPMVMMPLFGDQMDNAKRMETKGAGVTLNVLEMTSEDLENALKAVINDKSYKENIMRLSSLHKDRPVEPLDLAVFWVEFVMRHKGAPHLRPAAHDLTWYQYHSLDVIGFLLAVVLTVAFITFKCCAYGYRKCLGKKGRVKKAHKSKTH
# B1: UGT1A4 (Homo sapiens) (protein)
# chain: T4 sequence (P22310 29-534)
# B2: UGT1A3 (Homo sapiens) (protein)
# chain: T3 sequence (P35503 29-534)
# B3: UGT1A8 (Homo sapiens) (protein)
# chain: T2 sequence (Q9HAW9 26-530)
# Columns and labels:
# UGT2B7 = biological target: T1, UGT2B7; conditions: ref Veal et al., 1995; Barbier et al., 2000; cited from earlier work
# [1] = tested on: human intestinal microsomes (HIM)
# UGT1A8 = biological target: T2, UGT1A8; experiment: in vitro; conditions: UGT1A8 Supersomes, pH 7.5, probe aprepitant […] (Km), AP-G formation
# UGT1A3 [2] = biological target: T3, UGT1A3; experiment: Inhibition of aprepitant glucuronidation by UGT specific inhibitors in UGT1A3; conditions: UGT1A3 Supersomes, pH 7.5, probe aprepitant 5 µM, AP-G formation
# [3] = tested on: human liver microsomes (HLM); experiment: Inhibition of aprepitant glucuronidation by UGT specific inhibitors in HLM; type: in vitro ADME; conditions: for inhibition of aprepitant glucuronidation: aprepitant at 5 µM and at the Kms
# UGT1A3 [4] = biological target: T3, UGT1A3; experiment: in vitro; conditions: UGT1A3 Supersomes, pH 7.5, probe aprepitant […] µM (Km), AP-G formation
# UGT1A4 [5] = biological target: T4, UGT1A4; experiment: Inhibition of aprepitant glucuronidation by UGT specific inhibitors in UGT1A4; conditions: UGT1A4, aprepitant 5 µM, 200 µM hecogenin
# UGT1A4 [6] = biological target: T4, UGT1A4
# not read = substrate: C[C@@H](O[C@H]1OCCN(Cc2n[nH]c(=O)[nH]2)[C@H]1c1ccc(F)cc1)c1cc(C(F)(F)F)cc(C(F)(F)F)c1; experiment: not read; conditions: mean ± SE, pH 7.5, 37.0 °C
# [7] = aprepitant 5 µM, 1000 µM sulfinpyrazone or 200 µM hecogenin
molecule,measurement,setting,value
"Cc1cn([C@H]2C[C@H](N=[N+]=[N-])[C@@H](CO)O2)c(=O)[nH]c1=O [AZT, 3’-azido-3’-deoxythymidine]",share of glucuronidation catalyzed by UGT2B7,UGT2B7,60–70%
O=C(O)Cc1ccccc1Nc1c(Cl)cccc1Cl [diclofenac],inhibition,[1],100%
same,"inhibition at 60 min, 500 µM",UGT1A8,66.7%
O=C1C(CC[S+]([O-])c2ccccc2)C(=O)N(c2ccccc2)N1c1ccccc1 (stereo not shown) [sulfinpyrazone],"inhibition at 60 min, 1000 µM",UGT1A3 [2],100%
same,Percent inhibition of aprepitant glucuronidation,[3]; [7],22.2%
same,Percent inhibition of aprepitant glucuronidation,"[3]; aprepitant […] µM (Km for UGT1A3), 1000 µM sulfinpyrazone",22.1%
same,inhibition of aprepitant glucuronidation,[3],< 25%
same,"inhibition at 60 min, 1000 µM",UGT1A3 [4],100%
hecogenin,Percent inhibition of aprepitant glucuronidation,UGT1A4 [5],100%
same,Percent inhibition of aprepitant glucuronidation,[3]; [7],100%
same,Percent inhibition of aprepitant glucuronidation,"[3]; aprepitant […] (Km for UGT1A4), 200 µM hecogenin",80.8%
same,inhibition of aprepitant glucuronidation,[3],high inhibition
same,inhibition,UGT1A4 [6],83.9%
B1,K0.5,"not read; other: UGT1A4, Michaelis-Menten",161.6 ± 15.6 µM and 162 ± 16 µM
B2,K0.5,"not read; other: UGT1A3, Michaelis-Menten",69.4 ± 1.9 µM and 69 ± 2 µM
B3,K0.5,"not read; other: UGT1A8, Hill equation (S50)",197.1 ± 28.2 µM and 197 ± 28 µM
